Reference: patent US10131652B2, “Pyrimidinyloxy benzene derivatives as herbicides” (E. I. DU PONT DE NEMOURS AND COMPANY, priority 2014, dated 2018)

What was measured:
Type in all cases: in vivo
[1] = system: small-flower umbrella sedge (Cyperus difformis); assay: Test C flooded paddy test plant response; details: Flood, 250 g ai/ha; scale of 0 to 100 where 0 is no effect and 100 is complete control; 13 to 15 days
Outline: (§1)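 Plants grown to 2-leaf stage, flooded 3 cm above soil; compounds applied directly into paddy water, depth kept throughout. Visual rating versus controls after 13 to 15 days in greenhouse, 0 (no effect) to 100 (complete control).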

[2] = system: ducksalad (Heteranthera limosa); assay: Test C flooded paddy test plant response; details: Flood, 250 g ai/ha; scale of 0 to 100 where 0 is no effect and 100 is complete control; 13 to 15 days
Outline: as §1

rice (Oryza sativa) = assay: Test C flooded paddy test plant response; details: Flood, 250 g ai/ha; scale of 0 to 100 where 0 is no effect and 100 is complete control; 13 to 15 days
Outline: as §1

[3] = system: barnyardgrass (Echinochloa crus-galli); assay: Test C flooded paddy test plant response; details: Flood, 250 g ai/ha; scale of 0 to 100 where 0 is no effect and 100 is complete control; 13 to 15 days
Outline: as §1

[4] = system: ragweed (common ragweed, Ambrosia elatior); assay: Test B pre-/postemergence plant response
Outline: (§2)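 Steps: plant seeds in loam soil–sand mix; spray soil preemergence, and in parallel spray 2–10 cm one- to two-leaf plants postemergence; hold ~10 days in greenhouse; visually rate injury against untreated controls (0 = no effect, 100 = complete control).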

kochia (Kochia scoparia) = assay: Test B pre-/postemergence plant response
Outline: as §2

[5] = system: Italian ryegrass (Lolium multiflorum); assay: Test B pre-/postemergence plant response
Outline: as §2

[6] = system: winter wheat (Triticum aestivum); assay: Test D pre-/postemergence plant response
Outline: (§3)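 Each compound, in non-phytotoxic solvent with surfactant, was sprayed onto soil right after sowing or onto young plants 2 to 18 cm tall. After 13 to 15 days under greenhouse conditions, effects were judged visually against controls on a 0 (no effect) to 100 (complete control) scale.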

[7] = system: galium (catchweed bedstraw, Galium aparine); assay: Test D pre-/postemergence plant response
Outline: as §3

[8] = system: velvetleaf (Abutilon theophrasti); assay: Test D pre-/postemergence plant response
Outline: as §3

[9] = system: Italian ryegrass (Lolium multiflorum); assay: Test D pre-/postemergence plant response
Outline: as §3

[10] = system: lambsquarters (Chenopodium album); assay: Test D pre-/postemergence plant response
Outline: as §3

corn (Zea mays) = assay: Test D pre-/postemergence plant response
Outline: as §3

[11] = system: oilseed rape (Brassica napus); assay: Test D pre-/postemergence plant response
Outline: as §3

[12] = 125 g ai/ha, postemergence, 0 to 100 scale, 0 no effect, 100 complete control
[13] = Postemergence, 500 g ai/ha, 0 to 100 scale (0 no effect, 100 complete control)
[14] = Preemergence, 125 g ai/ha, 0 to 100 scale (0 no effect, 100 complete control)
[15] = Preemergence, 500 g ai/ha, 0 to 100 scale where 0 is no effect and 100 is complete control
[16] = Postemergence, 31 g ai/ha, scale 0 to 100 (0 no effect, 100 complete control)
[17] = Postemergence, 62 g ai/ha, scale 0 to 100, 0 no effect, 100 complete control
[18] = Postemergence, 125 g ai/ha, scale 0 to 100, 0 no effect, 100 complete control
[19] = Preemergence, 16 g ai/ha, scale 0 to 100 (0 no effect, 100 complete control)
[20] = Preemergence, 31 g ai/ha, scale 0 to 100 (0 no effect, 100 complete control)
[21] = Preemergence, 62 g ai/ha, scale 0 to 100 (0 no effect, 100 complete control)

N#Cc1cccc(Oc2ncc(Cl)cn2)c1-c1cc(C(F)F)on1 [Compound 180]
Sedge, Umbrella plant response rating [1]: 80 | Ducksalad plant response rating [2]: 90 | Rice plant response rating (rice (Oryza sativa)): 0 | Barnyardgrass plant response rating [3]: 0 | Plant response rating, Ragweed [4, 12]: 50 | Plant response rating, Ragweed [4, 13]: 70 | Ragweed plant response rating [4, 14]: 50 | Plant response rating, Ragweed [4, 15]: 70 | Plant response rating, Kochia (kochia (Kochia scoparia); [12]): 100 | Plant response rating, Kochia (kochia (Kochia scoparia); [13]): 100 | Kochia plant response rating (kochia (Kochia scoparia); [14]): 100 | Plant response rating, Kochia (kochia (Kochia scoparia); [15]): 100 | Plant response rating, Ryegrass, Italian [5, 12]: 100 | Plant response rating, Ryegrass, Italian [5, 13]: 100 | Ryegrass, Italian plant response rating [5, 14]: 20 | Plant response rating, Ryegrass, Italian [5, 15]: 70 | Plant response rating (scale 0 to 100), Wheat ([6]; Postemergence, 16 g ai/ha): 5 | Wheat plant response rating [6, 16]: 5 | Wheat plant response rating [6, 17]: 15 | Plant response rating, Wheat [6, 18]: 30 | Plant response rating (scale 0 to 100), Wheat ([6]; Preemergence, 125 g ai/ha): 30 | Plant response rating, Wheat [6, 19]: 0 | Plant response rating, Wheat [6, 20]: 0 | Plant response rating, Wheat [6, 21]: 0 | Plant response rating (scale 0 to 100), Galium ([7]; Postemergence, 16 g ai/ha): 65 | Galium plant response rating [7, 16]: 75 | Plant response rating, Galium [7, 17]: 100 | Plant response rating, Galium [7, 18]: 100 | Plant response rating (scale 0 to 100), Galium ([7]; Preemergence, 125 g ai/ha): 98 | Plant response rating, Galium [7, 19]: 75 | Plant response rating, Galium [7, 20]: 80 | Plant response rating, Galium [7, 21]: 98 | Plant response rating (scale 0 to 100), Velvetleaf ([8]; Postemergence, 16 g ai/ha): 45 | Velvetleaf plant response rating [8, 16]: 40 | Velvetleaf plant response rating [8, 17]: 35 | Plant response rating, Velvetleaf [8, 18]: 55 | Plant response rating (scale 0 to 100), Velvetleaf ([8]; Preemergence, 125 g ai/ha): 100 | Plant response rating, Velvetleaf [8, 19]: 75 | Plant response rating, Velvetleaf [8, 20]: 85 | Plant response rating, Velvetleaf [8, 21]: 90 | Plant response rating (scale 0 to 100), Ryegrass, Italian ([9]; Postemergence, 16 g ai/ha): 0 | Ryegrass, Italian plant response rating [9, 16]: 0 | Ryegrass, Italian plant response rating [9, 17]: 5 | Plant response rating, Ryegrass, Italian [9, 18]: 20 | Plant response rating (scale 0 to 100), Ryegrass, Italian ([9]; Preemergence, 125 g ai/ha): 65 | Plant response rating, Ryegrass, Italian [9, 19]: 0 | Plant response rating, Ryegrass, Italian [9, 20]: 0 | Plant response rating, Ryegrass, Italian [9, 21]: 50 | Plant response rating (scale 0 to 100), Lambsquarters ([10]; Postemergence, 16 g ai/ha): 70 | Lambsquarters plant response rating [10, 16]: 80 | Lambsquarters plant response rating [10, 17]: 98 | Plant response rating, Lambsquarters [10, 18]: 98 | Plant response rating (scale 0 to 100), Lambsquarters ([10]; Preemergence, 125 g ai/ha): 90 | Plant response rating, Lambsquarters [10, 19]: 95 | Plant response rating, Lambsquarters [10, 20]: 100 | Plant response rating, Lambsquarters [10, 21]: 100 | Plant response rating (scale 0 to 100), Corn (corn (Zea mays); Postemergence, 16 g ai/ha): 5 | Corn plant response rating (corn (Zea mays); [16]): 5 | Plant response rating, Corn (corn (Zea mays); [17]): 10 | Plant response rating, Corn (corn (Zea mays); [18]): 15 | Plant response rating (scale 0 to 100), Corn (corn (Zea mays); Preemergence, 125 g ai/ha): 30 | Plant response rating, Corn (corn (Zea mays); [19]): 0 | Plant response rating, Corn (corn (Zea mays); [20]): 0 | Plant response rating, Corn (corn (Zea mays); [21]): 5 | Plant response rating (scale 0 to 100), Oilseed Rape ([11]; Postemergence, 16 g ai/ha): 5 | Oilseed Rape plant response rating [11, 16]: 60 | Oilseed Rape plant response rating [11, 17]: 80 | Plant response rating, Oilseed Rape [11, 18]: 90 | Plant response rating (scale 0 to 100), Oilseed Rape ([11]; Preemergence, 125 g ai/ha): 100 | Plant response rating, Oilseed Rape [11, 19]: 70 | Plant response rating, Oilseed Rape [11, 20]: 95 | Plant response rating, Oilseed Rape [11, 21]: 100
